# Measured values published in patent US20180200261A1, “METHODS AND MATERIALS FOR TREATING CANCER” (Mayo Foundation for Medical Education and Research, priority 2015, published 2018).
# Experiments:
# [1] = test system: OVCAR10 cells; assay: PARP inhibitor sensitivity assay (colony formation), OVCAR10; assay type: cell-based; settings: OVCAR10, JQ1 100 nM, OTX015 100 nM, i-BET-762 250 nM together with AZD2281 0-10 μM, 1 to 2 weeks, clones counted
# Method: FIG. 3. […] OVCAR10 cells were plated in 6 well plates at a density of 500 cells/well. JQ1 (100 nM), OTX015 (100 nM), and i-BET-762 (250 nM) were added together with different concentrations of AZD2281 (0, 0.1, 1, or 10 μM). […] The cells were cultured for 1 to 2 weeks until clones were visible for counting.
# Cells were plated in 6 well plates with at a density of 500 cells/well. BET inhibitors were added together with different concentrations of AZD2281 (0, 0.1, 1, or 10 μM), and the cells were cultured for 1 to 2 weeks until the colonies were visible for counting.
# [2] = test system: HeLa cells; assay: Immunofluorescence of ionizing radiation induced foci (IRIF); assay type: cell-based; settings: 250 nM JQ1, irradiated
# Method: FIGS. 1A-B. BET inhibitor affects DNA repair efficiency. (A and B) HeLa cells treated with (JQ1) or without (CK) 250 nM JQ1 were irradiated (2 Gy) and probed with the indicated antibodies at different time points.
# To visualize ionizing radiation induced foci (IRIF), cells were cultured on coverslips and treated with 5 Gy ionizing radiation (IR) followed by recovery as indicated. Cells were then washed in PBS, incubated in 3% paraformaldehyde for 15 minutes, and permeabilized in 0.5% Triton solution for 5 minutes at room temperature. Samples were blocked with 5% goat serum and then incubated with primary antibodies for 30 minutes. Samples were washed three times and incubated with secondary antibodies for 30 minutes. Cells were then stained with DAPI to visualize nuclear DNA. The coverslips were mounted onto glass slides with anti-fade solution and visualized using a Nikon eclipse 80i fluorescence microscope. The following antibodies were used in immunofluorescence: rH2Ax (Millipore) and Rad51 (GeneTex).
# To check the effect of BET inhibitor in the DNA repair pathway, the foci of rH2Ax and RAD51 were examined (FIG. 1). rH2Ax is the marker of damaged DNA. RAD51 is an enzyme involved in homology recombination. Both proteins can form foci at damaged DNA sites.
Structure (SMILES),cell sensitivity to PARP inhibitor [1],rH2Ax foci (rH2Ax positive cells) after IR ([2]; 24 hours after IR),RAD51 foci after IR ([2]; different time points)
"CCNC(=O)C[C@@H]1N=C(c2ccc(Cl)cc2)c2cc(OC)ccc2-n2c(C)nnc21 [i-BET-762, (S)-2-(6-(4-chlorophenyl)-8-methoxy-1-methyl-4H-benzo[f][1,2,4]triazolo[4,3-a][1,4]diazepin-4-yl)-N-ethylacetamide]",affect cell sensitivity to PARP inhibitor,,
"Cc1sc2c(c1C)C(c1ccc(Cl)cc1)=N[C@@H](CC(=O)Nc1ccc(O)cc1)c1nnc(C)n1-2 [OTX015, (6S)-4-(4-chlorophenyl)-N-(4-hydroxyphenyl)-2,3,9-trimethyl-6H-thieno[3,2-f][1,2,4]triazolo[4,3-a][1,4]diazepine-6-acetamide]",affect cell sensitivity to PARP inhibitor,,
"Cc1sc2c(c1C)C(c1ccc(Cl)cc1)=N[C@@H](CC(=O)OC(C)(C)C)c1nnc(C)n1-2 [JQ1, (S)-tert-butyl 2-(4-(4-chlorophenyl)-2,3,9-trimethyl-6H-thieno[3,2-f][1,2,4]triazolo[4,3-a][1,4]diazepin-6-yl)acetate]",affect cell sensitivity to PARP inhibitor,sustained at high levels,affected RAD51 in a similar manner
